Values quoted from earlier work, collected in patent publication US20230285429A1, “CANNABINOID ACID FORMULATIONS, DELIVERY SYSTEMS, AND METHODS OF USE” (Flora Growth U.S. Holdings Corp., priority 2022, published 2023).

Legend:
[1] = fatty acids, intestinal lymph
[2] = target: spike protein of SARS-CoV-2 (Severe acute respiratory syndrome coronavirus 2, UniProt P0DTC2)

SMILES | percentage transported to the lymph system [1] | affinity for the spike protein [2]
CCCCCCCCCCCC(=O)O [lauric] | 28% | –
C=C(C)[C@@H]1CCC(C)=C[C@H]1c1c(O)cc(CCCCC)c(C(=O)O)c1O [CBDA, cannabidiolic acid] | – | high affinity
CCCCC/C=C\C/C=C\CCCCCCCC(=O)O [linoleic] | 32% | –
CCCCCc1cc(O)c(C/C=C(\C)CCC=C(C)C)c(O)c1C(=O)O [CBGA, cannabigerolic acid] | – | high affinity
CCCCCCCCCC(=O)O [decanoic] | 13% | –
